This note sets out measurements from patent US20260001847A1, “HERBICIDAL QUINOLONE DERIVATIVES” (SYNGENTA CROP PROTECTION AG, priority 2022, published 2026).

Common to all, as to type: in vivo
Details in all cases: 1000 g/ha, evaluated after 13 days

The subject of test [1] is Zea mays (ZEAMX). Nature of the test: Pre-emergence Test.
In test [2] the test system is Ipomoea hederacea (IPOHE). Kind of test: Pre-emergence Test.
Test [3] deals with Echinochloa crus-galli (ECHCG). Kind of test: Pre-emergence Test.
Test [4] relates to Setaria faberi (SETFA). Kind of test: Pre-emergence Test.
The test system of test [5] is Zea mays (ZEAMX). Nature of the test: Post-emergence Test. The protocol: (§1) Seeds of a variety of test species are sown in standard soil in pots (Abutilon theophrasti (ABUTH), Ipomoea hederacea (IPOHE). Setaria faberi (SETFA), Echinochloa crus-galli (ECHCG), Zea mays (ZEAMX), Amaranthus retoflexus (AMARE), Solanum nigrum (SOLNI), Lolium perenne (LOLPE), Amaranthus palmeri (AMAPA)). After 8 days cultivation under controlled conditions in a glasshouse (at 24° C./16° C., day/night-; 14 hours light; 65% humidity), the plants are sprayed with an aqueous spray solution derived from the formulation of the technical active ingredient in acetone/water (50:50) solution containing 0.5% Tween 20 (polyoxyethylene sorbitan monolaurate, CAS RN 9005-64-5). Compounds are applied at 1000 g/ha unless otherwise stated. The test plants are then grown in a glasshouse under controlled conditions in a glasshouse (at 24° C./16° C., day/night; 14 hours light; 65% humidity) and watered twice daily. After 13 days the test is evaluated for the percentage damage caused to the plant. The biological activities are shown in the following table on a five-point scale (5=81-100%; 4=61-80%; 3=41-60%; 2=21-40%; 1=0-20%; -=not tested).

Test [6] relates to Setaria faberi (SETFA). Nature of the test: Post-emergence Test. The method, then: as §1
In test [7] the test system is Echinochloa crus-galli (ECHCG). Nature of the test: Post-emergence Test. The protocol: as §1
Test [8] deals with Ipomoea hederacea (IPOHE). Nature of the test: Post-emergence Test. The method, then:
as §1

The subject of test [9] is Amaranthus retoflexus (AMARE). Kind of test: Post-emergence Test. The method, then:
as §1

Test [10] concerns Abutilon theophrasti (ABUTH). Kind of test: Pre-emergence Test.
In test [11] the test system is Solanum nigrum (SOLNI). Kind of test: Pre-emergence Test.
Test [12] has as its system Amaranthus retoflexus (AMARE). Kind of test: Pre-emergence Test.
The subject of test [13] is Lolium perenne (LOLPE). Nature of the test: Pre-emergence Test.
The subject of test [14] is Lolium perenne (LOLPE). Kind of test: Post-emergence Test. The method, then:
as §1

The subject of test [15] is Abutilon theophrasti (ABUTH). Kind of test: Post-emergence Test. The protocol: as §1
Test [16] has as its system Solanum nigrum (SOLNI). Kind of test: Post-emergence Test. The method, then:
as §1

Test [17] has as its system Amaranthus palmeri (AMAPA). Nature of the test: Pre-emergence Test.
Test [18] relates to Amaranthus palmeri (AMAPA). Kind of test: Post-emergence Test. The method, then: as §1

As for `CCn1c(-c2ccc(Cl)c(Cl)c2)c(C(=O)O)c(=O)c2ccc(OC)cc21` [Compound 1, 2-(3,4-dichlorophenyl)-1-ethyl-7-methoxy-4-oxo-quinoline-3-carboxylic acid], the “percentage damage caused to the plant, ZEAMX” value with Zea mays (ZEAMX) [1] was 1 (1=0-20%); in the test with Zea mays (ZEAMX) [5], 0. Besides, the “percentage damage caused to the plant, IPOHE” value in test [2] is given as 2 (2=21-40%); in test [8], 3 (3=41-60%). Moreover, the “percentage damage caused to the plant, ECHCG” value in test [3] and in test [7] was 1 (1=0-20%) in each case. The “percentage damage caused to the plant, SETFA” value in the test on Setaria faberi (SETFA) [4] and in the test with Setaria faberi (SETFA) [6] was 2 (2=21-40%) in each case. In addition, the “percentage damage caused to the plant, AMARE” value in test [9] was 0. In [10], the “percentage damage caused to the plant, ABUTH” value is listed as 3 (3=41-60%).
Turning to `CCn1c(-c2ccc(Cl)c(Cl)c2)c(C(=O)O)c(=O)c2c(C(F)(F)F)cccc21` [Compound 2, 2-(3,4-dichlorophenyl)-1-ethyl-4-oxo-5-(trifluoromethyl)quinoline-3-carboxylic acid], the “percentage damage caused to the plant, ZEAMX” value in the test with Zea mays (ZEAMX) [1] is recorded as 1 (1=0-20%); with Zea mays (ZEAMX) [5], 3 (3=41-60%). For the same molecule, the figures for the “percentage damage caused to the plant, IPOHE” value in test [2] and in [8] were 2 (2=21-40%) and 3 (3=41-60%), respectively. The “percentage damage caused to the plant, ECHCG” value in test [3] and in test [7] was 5 (5=81-100%) each time. Further, the “percentage damage caused to the plant, SOLNI” value in the test on Solanum nigrum (SOLNI) [11] and in the test on Solanum nigrum (SOLNI) [16] was 2 (2=21-40%) in each case. Further, the “percentage damage caused to the plant, AMARE” value in test [12] and in [9] was 2 (2=21-40%) in each case. In addition, the results for the “percentage damage caused to the plant, LOLPE” value in the test on Lolium perenne (LOLPE) [13] and in the test on Lolium perenne (LOLPE) [14] were 0 and 1 (1=0-20%), respectively. In addition, the results for the “percentage damage caused to the plant, SETFA” value in the test with Setaria faberi (SETFA) [4] and in the test on Setaria faberi (SETFA) [6] were 5 (5=81-100%) and 4 (4=61-80%), respectively. In addition, the results for the “percentage damage caused to the plant, ABUTH” value in [15] and in test [10] were 3 (3=41-60%) and 2 (2=21-40%), respectively.
Consider `CCn1c(-c2ccc(Cl)c(Cl)c2)c(C(=O)O)c(=O)c2cc(Br)ccc21` [Compound 8, 6-bromo-2-(3,4-dichlorophenyl)-1-ethyl-4-oxo-quinoline-3-carboxylic acid], for which the “percentage damage caused to the plant, ZEAMX” value in the test with Zea mays (ZEAMX) [1] is on record as 2 (2=21-40%); with Zea mays (ZEAMX) [5], 4 (4=61-80%). Further, the entries for the “percentage damage caused to the plant, IPOHE” value in test [2] and in test [8] were 1 (1=0-20%) and 4 (4=61-80%), respectively. The “percentage damage caused to the plant, ECHCG” value is on record as 5 (5=81-100%) in test [3] and 4 (4=61-80%) in [7]. In addition, the “percentage damage caused to the plant, AMARE” value is 1 (1=0-20%) in test [12] and 0 in [9]. The “percentage damage caused to the plant, AMAPA” value in [17] is 2 (2=21-40%); in test [18] it was 1 (1=0-20%). The “percentage damage caused to the plant, SETFA” value in the test on Setaria faberi (SETFA) [4] is 5 (5=81-100%); in the test with Setaria faberi (SETFA) [6], 4 (4=61-80%).
Regarding `CCn1c(-c2ccc(Cl)c(Cl)c2)c(C(=O)O)c(=O)c2cc(SC)ccc21` [Compound 11, 2-(3,4-dichlorophenyl)-1-ethyl-6-methylsulfanyl-4-oxo-quinoline-3-carboxylic acid], the “percentage damage caused to the plant, ZEAMX” value with Zea mays (ZEAMX) [1] and in the test on Zea mays (ZEAMX) [5] was 2 (2=21-40%) each time. The “percentage damage caused to the plant, IPOHE” value in test [2] and in test [8] was 1 (1=0-20%) in each case. The “percentage damage caused to the plant, ECHCG” value is on record as 5 (5=81-100%) in test [3] and 4 (4=61-80%) in test [7]. For the same molecule, the figures for the “percentage damage caused to the plant, AMARE” value in [12] and in [9] were 1 (1=0-20%) and 2 (2=21-40%), respectively. The “percentage damage caused to the plant, AMAPA” value in test [17] and in test [18] was 3 (3=41-60%) throughout. Besides, the “percentage damage caused to the plant, SETFA” value in the test on Setaria faberi (SETFA) [4] was 5 (5=81-100%); with Setaria faberi (SETFA) [6], 3 (3=41-60%).
As to `CCn1c(-c2ccc(Cl)c(Cl)c2)c(C(=O)O)c(=O)c2cc(S(C)(=O)=O)ccc21` [Compound 12, 2-(3,4-dichlorophenyl)-1-ethyl-6-methylsulfonyl-4-oxo-quinoline-3-carboxylic acid], the “percentage damage caused to the plant, ZEAMX” value with Zea mays (ZEAMX) [1] and with Zea mays (ZEAMX) [5] was 1 (1=0-20%) each time. Further, the “percentage damage caused to the plant, IPOHE” value in [2] is 1 (1=0-20%); in test [8], 2 (2=21-40%). For the same molecule, the “percentage damage caused to the plant, ECHCG” value in [3] is 5 (5=81-100%); in test [7] it was 4 (4=61-80%). Further, the “percentage damage caused to the plant, AMARE” value in [12] and in test [9] was 3 (3=41-60%) each time. Besides, the figures for the “percentage damage caused to the plant, AMAPA” value in [17] and in [18] were 3 (3=41-60%) and 2 (2=21-40%), respectively. For the same molecule, the “percentage damage caused to the plant, SETFA” value with Setaria faberi (SETFA) [4] is listed as 5 (5=81-100%); in the test on Setaria faberi (SETFA) [6], 3 (3=41-60%).
On to `CCn1c(-c2ccc(Cl)c(Cl)c2)c(C(=O)O)c(=O)c2cc(C)ccc21` [Compound 14, 2-(3,4-dichlorophenyl)-1-ethyl-6-methyl-4-oxo-quinoline-3-carboxylic acid], for which the “percentage damage caused to the plant, ZEAMX” value in the test with Zea mays (ZEAMX) [1] and in the test on Zea mays (ZEAMX) [5] was 2 (2=21-40%) in each case. The entries for the “percentage damage caused to the plant, IPOHE” value in test [2] and in test [8] were 2 (2=21-40%) and 3 (3=41-60%), respectively. For the same molecule, the “percentage damage caused to the plant, ECHCG” value in [3] is recorded as 4 (4=61-80%); in [7], 3 (3=41-60%). For the same molecule, the “percentage damage caused to the plant, AMARE” value in test [12] and in test [9] was 5 (5=81-100%) throughout. Besides, the “percentage damage caused to the plant, AMAPA” value in [17] and in test [18] was 5 (5=81-100%) in each case. Besides, the “percentage damage caused to the plant, SETFA” value in the test with Setaria faberi (SETFA) [4] is 4 (4=61-80%); with Setaria faberi (SETFA) [6], 3 (3=41-60%).
For `CCn1c(-c2ccc(Cl)c(Cl)c2)c(C(=O)O)c(=O)c2cc(OC)ccc21` [Compound 15, 2-(3,4-dichlorophenyl)-1-ethyl-6-methoxy-4-oxo-quinoline-3-carboxylic acid], the “percentage damage caused to the plant, ZEAMX” value with Zea mays (ZEAMX) [1] and in the test with Zea mays (ZEAMX) [5] was 1 (1=0-20%) throughout. Besides, the “percentage damage caused to the plant, IPOHE” value in [2] and in test [8] was 2 (2=21-40%) in each case. Also, the “percentage damage caused to the plant, ECHCG” value was 4 (4=61-80%) in test [3] and 3 (3=41-60%) in test [7]. The figures for the “percentage damage caused to the plant, AMARE” value in test [12] and in test [9] were 3 (3=41-60%) and 2 (2=21-40%), respectively. Moreover, the “percentage damage caused to the plant, AMAPA” value was 3 (3=41-60%) in test [17] and 2 (2=21-40%) in test [18]. Further, the “percentage damage caused to the plant, SETFA” value was 5 (5=81-100%) in the test with Setaria faberi (SETFA) [4] and 2 (2=21-40%) in the test on Setaria faberi (SETFA) [6].
Consider `CCn1c(-c2ccc(F)cc2)c(C(=O)O)c(=O)c2ccccc21` [Compound 18, 1-ethyl-2-(4-fluorophenyl)-4-oxo-quinoline-3-carboxylic acid], for which the “percentage damage caused to the plant, ZEAMX” value in the test with Zea mays (ZEAMX) [1] is reported as 0; with Zea mays (ZEAMX) [5] it was 1 (1=0-20%). The “percentage damage caused to the plant, IPOHE” value in [2] and in [8] was 0 each time. Also, the “percentage damage caused to the plant, ECHCG” value in test [3] is recorded as 2 (2=21-40%); in test [7] it was 1 (1=0-20%). Besides, the “percentage damage caused to the plant, AMARE” value in [12] and in test [9] was 1 (1=0-20%) in each case. The “percentage damage caused to the plant, AMAPA” value in test [17] and in test [18] was 1 (1=0-20%) throughout. The “percentage damage caused to the plant, SETFA” value with Setaria faberi (SETFA) [4] is listed as 3 (3=41-60%); in the test with Setaria faberi (SETFA) [6], 1 (1=0-20%).
